Source: paper PMC5004293, “Characterization of FRM-36143 as a new γ-secretase modulator for the potential treatment of familial Alzheimer’s disease” (Alzheimer's Research & Therapy, 2016)

Columns and labels:
[1] = test system: DHCR24; details: cited from earlier work
[2] = molecular target: T1, DHCR24 (Homo sapiens, UniProt Q15392); experiment: Desmosterol assay in HepG2 cells; format: cell-based
T1 construct: endogenous in cells; host or cells: HepG2 cells
T1 sequence (Q15392 23-516): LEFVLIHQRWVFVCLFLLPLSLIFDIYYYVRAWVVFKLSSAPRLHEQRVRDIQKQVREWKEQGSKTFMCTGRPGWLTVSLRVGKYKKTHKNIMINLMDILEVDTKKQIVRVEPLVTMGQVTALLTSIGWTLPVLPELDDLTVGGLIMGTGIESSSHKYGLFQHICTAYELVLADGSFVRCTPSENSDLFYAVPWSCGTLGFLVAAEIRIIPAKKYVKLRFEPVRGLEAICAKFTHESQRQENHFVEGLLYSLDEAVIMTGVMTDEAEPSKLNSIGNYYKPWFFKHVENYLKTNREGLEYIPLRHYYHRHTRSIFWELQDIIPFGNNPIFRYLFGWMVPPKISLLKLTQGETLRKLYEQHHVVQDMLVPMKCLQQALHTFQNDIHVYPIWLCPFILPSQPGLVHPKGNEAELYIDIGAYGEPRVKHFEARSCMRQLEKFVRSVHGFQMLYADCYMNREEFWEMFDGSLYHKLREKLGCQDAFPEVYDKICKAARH
Experimental: HepG2 cells were grown in Eagle's minimal essential medium (EMEM) containing 10 % fetal bovine serum, penicillin (50 U/mL), and streptomycin (50 ug/mL) and plated at a density of 1 million cells/well in 6-well plates for the experiment. Four to five days after plating, the cells were washed with Hank’s balanced salt solution (HBSS), and compound treatment applied for 2 h in HBSS. At the end of the treatment, cells were collected, washed with PBS, and pelleted. Sterols were extracted from the cell pellet by adding 100 μL PBS and 3 mL ethylacetate (containing an internal standard of 1 mg/mL d-cholesterol). Tubes were vortexed for 20 min and centrifuged at 2000 × g for 20 min at room temperature. The organic phase was dried under a stream of nitrogen at 40 °C and the samples reconstituted in 65 % methanol. Liquid chromatography-tandem mass spectrometry (LC-MS/MS) analysis was performed using a Shimadzu 20-series UFLC (Shimadzu, Kyoto, Japan) and an API 5500 (Applied Biosystems, Foster City, CA, USA) with a Hypersil GOLD column (100X2.1 mM; Thermo Fisher).

[3] = parameters: method as in PMID 24085193; details: animals; takes 12–14 weeks to appear; cited from earlier work
[4] = test system: Notch processing; experiment: Notch reporter assay (HeLa 6xCBF1-Luc, NotchΔE); format: cell-based, human; details: overnight
Experimental: The wild-type CBF1 binding element was cloned in front of the SV40 promoter-driven luciferase reporter construct of pGL3pro (Promega, Madison, WI, USA) using the following oligonucleotides: • CBF1 Fw (5’→3’): […] • CBF1 Rv (5’→3’): […]
Oligonucleotides were phosphorylated using T4 polynucleotide kinase and annealed (by heating to 90 °C and cooling to room temperature in a buffer containing 0.1 M NaCl). Plasmid pGL3pro was cleaved with BglII and dephosphorylated using alkaline phosphatase. The oligonucleotide pair was then ligated using T4 ligase with the linearized plasmid DNA. A clone containing 6 copies of the CBF1 element in front of the SV40 promoter was chosen. The 6xCBF1-RE/SV40 promoter was excised from pGL3 using XhoI and HindIII, and the fragment transferred to the pGL4.17 [luc2/Neo] vector (Promega) was opened with the same restriction enzymes.
The full length human Notch in plasmid pCMV6-XL5 (Origene, Rockville, MD, USA) was used to amplify a truncated form of Notch (NotchΔE) containing the 20-amino-acid (a.a.) signal sequence followed by 5 a.a. […]
HeLa cells stably transfected with the 6xCBF1-Luc reporter were transiently transfected with the NotchΔE construct (4 μg DNA/10^6 cells) using Lipofectamine 2000 (Thermo Fisher, Waltham, MA, USA) in 6-well plates. […] Chemiluminescence was then read on an EnVision plate reader (Perkin Elmer).

[5] = molecular target: T2, Aβ42 (Homo sapiens, UniProt P05067); experiment: Aβ aggregation assay (thioflavin T); details: 10 μM peptide, 25 °C, 18 h
T2 construct: purchased AnaSpec
T2 sequence (P05067 672-713 limits assumed): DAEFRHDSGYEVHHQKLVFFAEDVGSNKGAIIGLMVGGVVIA
Experimental: Aβ peptides (AnaSpec, Fremont, CA, USA) were dissolved at a concentration of 1 mg/mL in hexafluoroisopropanol (HFIP). Peptides were then mixed at different molar ratios. HFIP was evaporated in a SpeedVac without heating for 15 min. Peptides and mixtures were kept on ice and reconstituted in 50 mM Tris–HCl, 1 mM EDTA. Peptides (final concentration: 10 μM) were added to thioflavin T (final concentration: 2.5 μM; AnaSpec) in a black 96-well plate. Aggregation was monitored on a SpectraMax M5 plate reader (Molecular Devices, Inc.) at a constant temperature of 25 °C using excitation/emission of 440 nm/480 nm. Readings were recorded in triplicate every 10 min for a period of 18 h.

Molecule: COc1cc(/C=C2\CCCN([C@@H](C)c3ccc(F)cc3)C2=O)ccc1-n1cnc(C)c1 [E2012]
- Inhibition of DHCR24 [1]: inhibit
- Desmosterol induction (change from DMSO) ([2]; 1 μM): ~ 60 fold
- IC50 ([2]; desmosterol accumulation, 2 h): 0.063 µM
- Lenticular opacity [3]: cause lenticular opacity

Molecule: COc1nc(/C=C/c2nc3n(n2)CCC[C@H]3c2ccccc2C(F)(F)F)ccc1-n1cnc(C)c1 [E2212]
- DHCR24 off-target activity [1]: did not have this off-target activity

Molecule: C[C@H](NC(=O)[C@@H](O)c1cc(F)cc(F)c1)C(=O)N[C@@H]1C(=O)N(C)c2ccccc2-c2ccccc21 [LY-411,575, reference compound]
- IC50 [4]: 0.0009 µM

Molecule: Aβ42: Aβ peptide (AnaSpec) used in the aggregation assay
- Increase in aggregates over time (thioflavin T fluorescence) [5]: > 15 fold
